In ChEMBL document CHEMBL1201862, “PubChem BioAssay data set” (2004):
One block for each compound: values may come before it. Calls of active or inactive are those of the source. Unless noted, the calls are words filed in the database; no cut-off is given here.

Experiments:
HSP90 = HSP90 (Plasmodium falciparum 3D7, UniProt Q8IL32); format: functional, organism-based
Candida albicans [1] = test: growth inhibition of azole-resistant C. albicans, dose response, CaCi-8 strain, Alamar Blue, dry powder, set 3 (AID 488905); format: functional, organism-based
Candida albicans [2] = test: reversal of fluconazole resistance in C. albicans, dose response, CaCi-2 strain, Alamar Blue, dry powder, set 3 (AID 488907); format: functional, organism-based
CAAX prenyl protease 2 [3] = target: T1, CAAX prenyl protease 2 (Saccharomyces cerevisiae S288c, UniProt Q03530); test: yeast Rce1 CaaX protease inhibitors, dose response, biochemical, plate reader, dry powder retest (AID 588851)
T1 sequence (Q03530 whole entry): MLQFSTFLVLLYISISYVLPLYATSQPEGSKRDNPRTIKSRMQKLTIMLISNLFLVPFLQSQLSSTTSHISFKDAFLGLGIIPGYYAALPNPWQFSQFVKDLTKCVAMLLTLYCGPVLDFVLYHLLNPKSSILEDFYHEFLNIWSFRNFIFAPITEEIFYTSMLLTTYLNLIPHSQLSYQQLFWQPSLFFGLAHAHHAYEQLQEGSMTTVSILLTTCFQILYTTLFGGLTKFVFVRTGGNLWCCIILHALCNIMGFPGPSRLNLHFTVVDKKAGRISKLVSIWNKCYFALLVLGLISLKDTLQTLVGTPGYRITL

CAAX prenyl protease 2 [4] = target: T1, CAAX prenyl protease 2; format: biochemical

Chain of HSP90 (Q8IL32 whole entry): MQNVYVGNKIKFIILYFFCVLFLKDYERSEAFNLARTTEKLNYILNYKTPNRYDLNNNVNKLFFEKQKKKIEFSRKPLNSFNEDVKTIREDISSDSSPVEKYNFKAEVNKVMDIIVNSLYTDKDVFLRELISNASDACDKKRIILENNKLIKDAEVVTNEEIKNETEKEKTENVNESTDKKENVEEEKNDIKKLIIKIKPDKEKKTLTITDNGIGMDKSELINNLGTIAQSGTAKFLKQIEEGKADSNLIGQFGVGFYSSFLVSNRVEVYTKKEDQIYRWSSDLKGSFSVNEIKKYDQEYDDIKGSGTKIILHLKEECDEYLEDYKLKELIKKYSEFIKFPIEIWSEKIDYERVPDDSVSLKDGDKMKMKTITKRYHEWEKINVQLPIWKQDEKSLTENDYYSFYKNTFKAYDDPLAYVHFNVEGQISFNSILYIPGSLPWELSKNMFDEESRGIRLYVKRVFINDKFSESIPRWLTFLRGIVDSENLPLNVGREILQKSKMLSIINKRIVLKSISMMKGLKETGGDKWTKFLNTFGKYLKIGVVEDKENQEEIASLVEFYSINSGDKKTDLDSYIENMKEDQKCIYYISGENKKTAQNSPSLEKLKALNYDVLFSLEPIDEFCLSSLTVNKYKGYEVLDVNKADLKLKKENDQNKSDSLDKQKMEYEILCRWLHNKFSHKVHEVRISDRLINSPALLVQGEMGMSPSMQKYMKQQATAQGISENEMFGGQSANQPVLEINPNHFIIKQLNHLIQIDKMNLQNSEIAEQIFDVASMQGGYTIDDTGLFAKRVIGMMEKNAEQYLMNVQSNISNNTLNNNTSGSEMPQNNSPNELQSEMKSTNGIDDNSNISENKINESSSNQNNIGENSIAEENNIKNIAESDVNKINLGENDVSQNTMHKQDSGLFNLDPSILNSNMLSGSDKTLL

- AC50 (HSP90): 28.6 µM (active)
Compound: CCCC1CCC(c2ccc(C(=N)NO)cc2)CC1 (stereo not given)

Compound: COc1ccc(C(=O)N2CCN(c3ccccn3)CC2)cc1
- AC50 (Candida albicans [1]): 15.4 µM (active)
- AC50 (Candida albicans [2]): 0.484 µM (active)

- AC50 (CAAX prenyl protease 2 [3]): 16.8 µM (active)
- AC50 (CAAX prenyl protease 2 [4]): 0.963 µM (active)
Compound: Cc1cccc(-c2nnc(SCc3ccc(C#N)cc3)n2Cc2ccco2)c1
